In US9458198B1, “Cyclic peptide-based NPR-B agonists” (priority 2009, dated 2016) one finds EC50 data, which are given here for 17 compounds.

For this assay, the target named is T1, NPR-B (Homo sapiens, UniProt P20594).
T1 construct: a functional assay using endogenously NPR-B expressing GTM-3 cells; endogenous in cells; host or cells: GTM-3 (transformed human trabecular meshwork cells)
T1 sequence (P20594 23-1047): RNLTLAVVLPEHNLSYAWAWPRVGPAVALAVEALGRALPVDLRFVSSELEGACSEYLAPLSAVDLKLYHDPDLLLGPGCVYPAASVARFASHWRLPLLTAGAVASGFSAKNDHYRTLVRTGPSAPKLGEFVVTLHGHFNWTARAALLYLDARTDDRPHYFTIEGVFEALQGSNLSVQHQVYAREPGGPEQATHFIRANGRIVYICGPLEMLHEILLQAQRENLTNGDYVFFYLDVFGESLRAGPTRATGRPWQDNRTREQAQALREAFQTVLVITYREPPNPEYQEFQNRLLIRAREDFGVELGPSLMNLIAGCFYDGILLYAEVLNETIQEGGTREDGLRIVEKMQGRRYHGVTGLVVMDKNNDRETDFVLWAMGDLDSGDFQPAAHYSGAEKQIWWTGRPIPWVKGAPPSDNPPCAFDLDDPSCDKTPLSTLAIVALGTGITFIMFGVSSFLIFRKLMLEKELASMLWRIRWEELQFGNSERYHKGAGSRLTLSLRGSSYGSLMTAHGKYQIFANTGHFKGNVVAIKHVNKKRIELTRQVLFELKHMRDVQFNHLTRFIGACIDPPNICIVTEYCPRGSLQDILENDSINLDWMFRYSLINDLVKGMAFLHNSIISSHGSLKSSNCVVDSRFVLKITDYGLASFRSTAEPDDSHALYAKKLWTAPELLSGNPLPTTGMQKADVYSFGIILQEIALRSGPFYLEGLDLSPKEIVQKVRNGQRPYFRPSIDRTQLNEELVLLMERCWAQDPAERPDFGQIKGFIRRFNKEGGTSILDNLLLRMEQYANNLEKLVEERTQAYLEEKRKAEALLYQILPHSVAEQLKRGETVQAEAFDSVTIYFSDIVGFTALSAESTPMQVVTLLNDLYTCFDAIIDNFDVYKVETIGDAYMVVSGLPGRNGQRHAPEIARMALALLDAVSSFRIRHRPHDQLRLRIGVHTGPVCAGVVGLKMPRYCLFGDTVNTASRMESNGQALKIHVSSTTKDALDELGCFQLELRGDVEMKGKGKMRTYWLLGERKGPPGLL
In words: NPR-B induced production of cyclic GMP in GTM-3 cells. It counts as cell-based. The conditions noted are these: GTM-3 cells, group needs both EC50 and Emax criteria, checked A then B then C. How it is done:
The efficacy and potency of compounds to activate NPR-B were evaluated in a functional assay using endogenously NPR-B expressing GTM-3 cells (Pang et al. 1994, Curr Eye Res 13:51-63). In this assay the dose dependent production of cyclic GMP (cGMP) is determined and Emax (maximum activation) and EC50 values are calculated.
The cell culture medium is aspirated and each well is washed with 200 μl DMEM/Ham's F12=Medium (Gibco). Then, 200 μl Medium supplemented with 1 mM IBMX (3-Isobutyl-1-methyl-xanthin, Sigma) is added to each well and incubated for 15 min. at room temperature.
Final compound concentrations are in the range from 45 μM to 20 nM.

The mark [1] stands for this setting: read-out: Activity (group): NPR-B activation, EC50 and Emax (CNP = 100%).

Molecules are shown by their SMILES. Where two headings read alike, the source gives them in different places. Where a SMILES comes first, the peptide text is derived from it. Bridges are numbered along the chain shown (N, C = ends).

Turning to `CC[C@H](C)[C@@H]1NC(=O)[C@H](CCCNC(=N)N)NC(=O)[C@H](CC(=O)O)NC(=O)[C@H](CC(C)C)NC(=O)[C@H](CCCCN)NC(=O)[C@H](CC(C)C)NC(=O)CNC(=O)[C@H](Cc2ccccc2)NC(=O)[C@H](Cc2c[nH]cn2)NC(=O)[C@@H](NC(=O)[C@@H](N)CCSC)CSSC[C@@H](C(=O)N[C@@H](Cc2ccc(O)cc2)C(=O)N[C@@H](CCCNC(=N)N)C(N)=O)NC(=O)[C@H](CO)NC1=O` [compound 5] (H-MCHFGLKLDRISCYR-NH2; disulfide 2-13), under setting [1], the EC50 was under 5 µM.

Turning to `CC[C@H](C)[C@@H]1NC(=O)[C@H](CCCNC(=N)N)NC(=O)[C@H](CC(=O)O)NC(=O)[C@H](CC(C)C)NC(=O)[C@H](CCCCN)NC(=O)[C@H](CC(C)C)NC(=O)CNC(=O)[C@H](Cc2ccccc2)NC(=O)[C@H](Cc2c[nH]cn2)NC(=O)[C@@H](NC(=O)[C@@H](N)CCSC)CSSC[C@@H](C(=O)N[C@@H](Cc2ccc(O)cc2)C(N)=O)NC(=O)[C@H](CO)NC1=O` [compound 6] (H-MCHFGLKLDRISCY-NH2; disulfide 2-13), the EC50 under setting [1] was under 5 µM.

Turning to `CC[C@H](C)[C@@H]1NC(=O)[C@H](CCCNC(=N)N)NC(=O)[C@H](CC(=O)O)NC(=O)[C@H](CC(C)C)NC(=O)[C@H](CCCCN)NC(=O)[C@H](CC(C)C)NC(=O)CNC(=O)[C@H](Cc2ccccc2)NC(=O)[C@H](Cc2c[nH]cn2)NC(=O)[C@@H](NC(=O)[C@@H](N)CCSC)CSSC[C@@H](C(N)=O)NC(=O)[C@H](CO)NC1=O` [compound 7], under setting [1], the EC50 is under 5 µM.

As for `CC[C@H](C)[C@@H]1NC(=O)[C@H](CCCNC(=N)N)NC(=O)[C@H](CC(=O)O)NC(=O)[C@H](CC(C)C)NC(=O)[C@H](CCCCN)NC(=O)[C@H](CC(C)C)NC(=O)CNC(=O)[C@H](Cc2ccccc2)NC(=O)[C@H](C)NC(=O)[C@@H](NC(=O)[C@@H](N)CCSC)CSSC[C@@H](C(N)=O)NC(=O)[C@H](CO)NC1=O` [compound 8], the EC50 under setting [1] is under 5 µM.

Regarding `CC[C@H](C)[C@@H]1NC(=O)[C@H](CCCNC(=N)N)NC(=O)[C@H](CC(=O)O)NC(=O)[C@H](CC(C)C)NC(=O)[C@H](CCCCN)NC(=O)[C@H](C)NC(=O)CNC(=O)[C@H](Cc2ccccc2)NC(=O)[C@H](Cc2c[nH]cn2)NC(=O)[C@@H](NC(=O)[C@@H](N)CCSC)CSSC[C@@H](C(N)=O)NC(=O)[C@H](CO)NC1=O` [compound 9] (H-MCHFGAKLDRISC-NH2; disulfide 2-13), the EC50 under setting [1] was under 15 µM.

`CC[C@H](C)[C@@H]1NC(=O)[C@H](CCCNC(=N)N)NC(=O)[C@H](CC(=O)O)NC(=O)[C@H](CC(C)C)NC(=O)[C@H](CCCCN)NC(=O)[C@H](CC(C)C)NC(=O)CNC(=O)[C@H](Cc2ccccc2)NC(=O)[C@H](Cc2c[nH]cn2)NC(=O)[C@@H](NC(=O)[C@H](N)CCSC)CSSC[C@@H](C(N)=O)NC(=O)[C@H](CO)NC1=O` [compound 10]: under setting [1], the EC50 is under 5 µM.

Regarding `CC[C@H](C)[C@@H]1NC(=O)[C@H](CCCNC(=N)N)NC(=O)[C@H](CC(=O)O)NC(=O)[C@H](CC(C)C)NC(=O)[C@H](CCCCN)NC(=O)[C@H](CC(C)C)NC(=O)CNC(=O)[C@H](Cc2ccccc2)NC(=O)[C@H](Cc2c[nH]cn2)NC(=O)[C@H](NC(=O)[C@@H](N)CCSC)CSSC[C@@H](C(N)=O)NC(=O)[C@H](CO)NC1=O` [compound 11], the EC50 under setting [1] was under 15 µM.

For the compound `CC[C@H](C)[C@@H]1NC(=O)[C@H](CCCNC(=N)N)NC(=O)[C@H](CC(=O)O)NC(=O)[C@H](CC(C)C)NC(=O)[C@H](CCCCN)NC(=O)[C@H](CC(C)C)NC(=O)CNC(=O)[C@H](Cc2ccccc2)NC(=O)[C@@H](Cc2c[nH]cn2)NC(=O)[C@@H](NC(=O)[C@@H](N)CCSC)CSSC[C@@H](C(N)=O)NC(=O)[C@H](CO)NC1=O` [compound 12], the EC50 under setting [1] was under 5 µM.

Consider `CC[C@H](C)[C@@H]1NC(=O)[C@H](CCCNC(=N)N)NC(=O)[C@H](CC(=O)O)NC(=O)[C@H](CC(C)C)NC(=O)[C@H](CCCCN)NC(=O)[C@H](CC(C)C)NC(=O)CNC(=O)[C@H](Cc2ccccc2)NC(=O)[C@H](Cc2c[nH]cn2)NC(=O)[C@H](NC(=O)[C@@H](N)CCSC)CSSC[C@H](C(N)=O)NC(=O)[C@H](CO)NC1=O` [compound 13], for which the EC50 under setting [1] is under 15 µM.

For `CC[C@H](C)[C@@H]1NC(=O)[C@H](CCCNC(=N)N)NC(=O)[C@H](CC(=O)O)NC(=O)[C@H](CC(C)C)NC(=O)[C@H](CCCCN)NC(=O)[C@H](CC(C)C)NC(=O)CNC(=O)[C@H](Cc2ccccc2)NC(=O)[C@H](Cc2c[nH]cn2)NC(=O)[C@@H](NC(=O)[C@@H](N)CCSC)CSSC[C@@H](C(=O)O)NC(=O)[C@H](CO)NC1=O` [compound 15], the EC50 under setting [1] was under 15 µM.

As to `CCCC[C@H](N)C(=O)N[C@H]1CSSC[C@@H](C(N)=O)NC(=O)[C@H](CO)NC(=O)[C@H]([C@@H](C)CC)NC(=O)[C@H](CCCNC(=N)N)NC(=O)[C@H](CC(=O)O)NC(=O)[C@H](CC(C)C)NC(=O)[C@H](CCCCN)NC(=O)[C@H](CC(C)C)NC(=O)CNC(=O)[C@H](Cc2ccccc2)NC(=O)[C@H](Cc2c[nH]cn2)NC1=O` [compound 16], the EC50 under setting [1] was under 15 µM.

For `CC[C@H](C)[C@@H]1NC(=O)[C@H](CCCNC(=N)N)NC(=O)[C@H](CC(=O)O)NC(=O)[C@H](CC(C)C)NC(=O)[C@H](CCCCN)NC(=O)[C@H](CC(C)C)NC(=O)CNC(=O)[C@H](Cc2ccccc2)NC(=O)CNC(=O)[C@@H](NC(=O)[C@@H](N)CCSC)CSSC[C@@H](C(N)=O)NC(=O)[C@H](CO)NC1=O` [compound 17], the EC50 under setting [1] is under 5 µM.

With `CC[C@H](C)[C@@H]1NC(=O)[C@H](CCCNC(=N)N)NC(=O)[C@H](CC(=O)O)NC(=O)[C@H](CC(C)C)NC(=O)[C@H](CCCCN)NC(=O)[C@H](CC(C)C)NC(=O)CNC(=O)[C@H](Cc2ccccc2)NC(=O)[C@H](CO)NC(=O)[C@@H](NC(=O)[C@@H](N)CCSC)CSSC[C@@H](C(N)=O)NC(=O)[C@H](CO)NC1=O` [compound 18], the EC50 under setting [1] is under 5 µM.

For the compound `CC[C@H](C)[C@@H]1NC(=O)[C@H](CCCNC(=N)N)NC(=O)[C@H](CC(=O)O)NC(=O)[C@H](CC(C)C)NC(=O)[C@H](CCCCN)NC(=O)[C@H](CC(=O)O)NC(=O)CNC(=O)[C@H](Cc2ccccc2)NC(=O)[C@H](Cc2c[nH]cn2)NC(=O)[C@@H](NC(=O)[C@@H](N)CCSC)CSSC[C@@H](C(N)=O)NC(=O)[C@H](CO)NC1=O` [compound 19] (H-MCHFGDKLDRISC-NH2; disulfide 2-13), under setting [1], the EC50 is under 5 µM.

Take `CC[C@H](C)[C@@H]1NC(=O)[C@H](CCCNC(=N)N)NC(=O)[C@H](CC(=O)O)NC(=O)[C@H](CC(C)C)NC(=O)[C@H](CCCCN)NC(=O)[C@H](Cc2c[nH]cn2)NC(=O)CNC(=O)[C@H](Cc2ccccc2)NC(=O)[C@H](Cc2c[nH]cn2)NC(=O)[C@@H](NC(=O)[C@@H](N)CCSC)CSSC[C@@H](C(N)=O)NC(=O)[C@H](CO)NC1=O` [compound 20] (H-MCHFGHKLDRISC-NH2; disulfide 2-13): the EC50 (Activity (group): NPR-B activation, EC50 and Emax (CNP = 100%)) is under 5 µM.

Regarding `CC[C@H](C)[C@@H]1NC(=O)[C@H](CCCNC(=N)N)NC(=O)[C@H](CC(=O)O)NC(=O)[C@H](CC(C)C)NC(=O)[C@H](CCCCN)NC(=O)[C@H](CC(C)C)NC(=O)CNC(=O)[C@H](Cc2ccccc2)NC(=O)[C@H](Cc2c[nH]cn2)NC(=O)[C@@H](NC(=O)[C@@H](N)CCSC)CSSC[C@@H](C(=O)N[C@@H](Cc2c[nH]c3ccccc23)C(=O)N[C@@H](CCCNC(=N)N)C(N)=O)NC(=O)[C@H](CO)NC1=O` [compound 21] (H-MCHFGLKLDRISCWR-NH2; disulfide 2-13), under setting [1], the EC50 is under 15 µM.

As to `CC[C@H](C)[C@@H]1NC(=O)[C@H](CCCNC(=N)N)NC(=O)[C@H](CC(=O)O)NC(=O)[C@H](CC(C)C)NC(=O)[C@H](CCCCN)NC(=O)[C@H](CC(C)C)NC(=O)CNC(=O)[C@H](Cc2ccccc2)NC(=O)[C@H](Cc2c[nH]cn2)NC(=O)[C@@H](NC(=O)[C@@H](N)CCSC)CSSC[C@@H](C(=O)N[C@@H](CC(N)=O)C(=O)N[C@@H](CCCNC(=N)N)C(N)=O)NC(=O)[C@H](CO)NC1=O` [compound 22] (H-MCHFGLKLDRISCNR-NH2; disulfide 2-13), under setting [1], the EC50 is under 5 µM.

One may read the EC50 as the concentration giving half of the maximal effect.
